This note sets out measurements from US8759377B2, “Substituted dioxopiperidines and dioxopyrrolidines as MGLUR4 allosteric potentiators, compositions, and methods of treating neurological dysfunction” (Vanderbilt University, priority 2009, dated 2014).

One assay concerns the target T1, human mGluR4 (Homo sapiens, UniProt Q14833).
T1 construct: expressed in transfected cells; host or cells: CHO cells
The assay is described as follows: human mGluR4 potentiation, Ca2+-sensitive dye fluorescence assay in transfected CHO cells. Particulars: for Emax: CHO, maximum extent of potentiation, human mGluR4, read-out: hGluMax; for EC50: EC50 for potentiation, human mGluR4, with EC20 concentration of agonist, read-out: hEC50. In kind it is cell-based. The method, then:
(§1) The disclosed compounds and compositions can be evaluated for their ability to act as a potentiator of metabotropic glutamate receptor activity, in particular mGluR4 activity, by any suitable known methodology known in the art. For example, Chinese Hamster Ovary (CHO) cells transfected with human mGluR4 or HEK cells co-transfected with rat mGluR4 and the G-protein regulated Inwardly Rectifying Potassium channel (GIRK) were plated in clear bottom assay plates for assay in a Hamamatsu FDSS Fluorometric Plate Reader. The cells were loaded with either a Ca2+-sensitive fluorescent dye or the thallium responsive dye and the plates were washed and placed into a suitable kinetic plate reader. […] Approximately two and a half minutes later, a concentration of mGluR4 orthosteric agonist (e.g. glutamate or L-AP4) eliciting approximately 20% (EC20) of the maximal agonist response was added to the cells, and the response was measured. Two minutes later, a concentration of mGluR4 agonist (e.g. glutamate or L-AP4) eliciting 80% (EC80) of the maximal agonist response was added to the cells, and the response was measured. For rat mGluR4/GIRK experiments, a baseline was established for approximately five seconds, disclosed compounds were added, and either an EC20 or EC80 concentration of agonist was added approximately two and one half minutes later.
(§2) The above described assay operated in two modes. In the first mode, a range of concentrations of the disclosed compounds are added to cells, followed by a single fixed concentration of agonist. If the compound acts as a potentiatior, an EC50 value for potentiation and a maximum extent of potentiation by the compound at this concentration of agonist is determined by non-linear curve fitting. If the compound acts as a noncompetitive antagonist, an IC50 value is determined by non-linear curve fitting. In the second mode, several fixed concentrations of the disclosed compounds are added to various wells on a plate, followed by a range in concentrations of agonist for each concentration of disclosed compound. The ECso values for the agonist at each concentration of compound are determined by non-linear curve fitting. A decrease in the EC50 value of the agonist with increasing concentrations of the sample compound (a leftward shift of the agonist concentration-response curve) is an indication of the degree of mGluR4 potentiation at a given concentration of the sample compound. A decrease in the maximal response of the agonist with increasing concentrations of the sample compounds, with or without a rightward shift in agonist potency, is an indication of the degree of noncompetitive antagonism at mGluR4. The second mode also indicates whether the sample compounds also affect the maximum response to mGluR4 to agonists.

The target in the next assay is T2, rat mGluR4 (Rattus norvegicus, UniProt P31423).
T2 construct: expressed in transfected cells; host or cells: HEK cells
Kind of assay: rat mGluR4/GIRK potentiation, thallium responsive dye assay in co-transfected HEK cells. It counts as cell-based. The following applies: for rGluMax: maximum extent of potentiation. On the procedure:
as §1, §2

Read-outs that look alike come from different tables or passages of the source.

T2 sequence (P31423 33-912): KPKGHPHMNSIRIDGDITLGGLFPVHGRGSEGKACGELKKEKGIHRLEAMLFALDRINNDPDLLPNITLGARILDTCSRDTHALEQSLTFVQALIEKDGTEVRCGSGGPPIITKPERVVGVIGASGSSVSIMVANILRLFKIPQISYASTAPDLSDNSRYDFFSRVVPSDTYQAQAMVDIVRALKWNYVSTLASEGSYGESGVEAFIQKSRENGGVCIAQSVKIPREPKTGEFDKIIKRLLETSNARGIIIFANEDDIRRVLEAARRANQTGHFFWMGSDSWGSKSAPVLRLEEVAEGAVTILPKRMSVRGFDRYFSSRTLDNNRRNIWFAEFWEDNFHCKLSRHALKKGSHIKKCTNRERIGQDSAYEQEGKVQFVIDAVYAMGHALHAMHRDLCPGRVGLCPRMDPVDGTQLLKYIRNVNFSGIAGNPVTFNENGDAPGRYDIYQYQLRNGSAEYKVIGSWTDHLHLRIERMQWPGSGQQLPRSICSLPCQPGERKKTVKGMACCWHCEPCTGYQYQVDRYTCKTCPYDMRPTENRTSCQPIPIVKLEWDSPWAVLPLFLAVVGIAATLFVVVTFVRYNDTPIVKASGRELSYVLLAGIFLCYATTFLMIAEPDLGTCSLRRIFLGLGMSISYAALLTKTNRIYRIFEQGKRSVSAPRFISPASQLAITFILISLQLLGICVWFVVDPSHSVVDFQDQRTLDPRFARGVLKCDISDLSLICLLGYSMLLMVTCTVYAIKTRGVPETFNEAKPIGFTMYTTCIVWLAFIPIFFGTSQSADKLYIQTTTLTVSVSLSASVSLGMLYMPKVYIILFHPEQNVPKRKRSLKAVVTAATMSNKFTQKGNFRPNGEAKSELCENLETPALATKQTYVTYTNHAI
T1 sequence (Q14833 33-912): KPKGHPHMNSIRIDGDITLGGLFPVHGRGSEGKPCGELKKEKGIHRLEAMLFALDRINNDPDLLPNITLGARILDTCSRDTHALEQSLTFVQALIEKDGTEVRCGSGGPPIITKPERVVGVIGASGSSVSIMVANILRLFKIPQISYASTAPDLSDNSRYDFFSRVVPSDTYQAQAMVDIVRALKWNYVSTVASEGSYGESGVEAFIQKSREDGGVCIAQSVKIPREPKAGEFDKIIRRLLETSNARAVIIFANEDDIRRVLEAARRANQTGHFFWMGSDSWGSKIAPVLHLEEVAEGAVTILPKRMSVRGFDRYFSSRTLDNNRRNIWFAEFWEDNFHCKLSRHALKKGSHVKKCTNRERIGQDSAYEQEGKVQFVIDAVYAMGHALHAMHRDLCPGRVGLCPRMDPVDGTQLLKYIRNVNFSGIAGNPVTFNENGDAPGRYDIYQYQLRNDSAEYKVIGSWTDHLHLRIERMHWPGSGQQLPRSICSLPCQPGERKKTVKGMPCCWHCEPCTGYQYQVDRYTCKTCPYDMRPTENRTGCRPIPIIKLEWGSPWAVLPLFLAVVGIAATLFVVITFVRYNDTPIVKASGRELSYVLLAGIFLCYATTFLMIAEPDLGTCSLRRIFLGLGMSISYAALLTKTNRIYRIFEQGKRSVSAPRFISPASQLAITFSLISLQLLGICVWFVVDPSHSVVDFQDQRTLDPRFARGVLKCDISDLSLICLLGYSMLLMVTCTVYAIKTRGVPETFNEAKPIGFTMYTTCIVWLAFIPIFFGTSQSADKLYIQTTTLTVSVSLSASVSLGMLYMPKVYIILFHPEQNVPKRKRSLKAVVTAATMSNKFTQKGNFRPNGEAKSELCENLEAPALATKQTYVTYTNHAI

On to `O=C(Nc1ccc(N2C(=O)[C@@H]3[C@H](C2=O)[C@@H]2C=C[C@H]3CC2)c(Cl)c1)c1ccccn1` [Example 1], for which the Emax at human mGluR4 stood at 222%.

In the case of `O=C(Nc1ccc(N2C(=O)C3[C@H]4C=C[C@H](C4)[C@H]3C2=O)c(Cl)c1)c1ccccn1` (some centres unmarked) [Example 2], the Emax on human mGluR4 turned out to be 211%. Further, the rGluMax on rat mGluR4 (rat mGluR4/GIRK) worked out at 110.2.

As for `O=C(Nc1ccc(N2C(=O)CC(c3ccccc3)C2=O)c(Cl)c1)c1ccccn1` (centres unmarked) [Example 3, N-(3-chloro-4-(2,5-dioxo-3-phenylpyrrolidin-1-yl)phenyl)picolinamide], at human mGluR4, the Emax was 219%. Further, the EC50 on rat mGluR4 is 690 nM. At rat mGluR4 (rat mGluR4/GIRK), the rGluMax was found to be 128.7.

With `O=C(Nc1ccc(N2C(=O)CC(Cc3ccccc3Cl)(c3ccccc3)C2=O)c(Cl)c1)c1ccccn1` (centres unmarked) [Example 4, N-(3-chloro-4-(3-(2-chlorobenzyl)-2,5-dioxo-3-phenylpyrrolidin-1-yl)phenyl)picolinamide], on human mGluR4, the Emax was found to be 88% and the EC50 stood at 329 nM.

As for `CC1(C)CC(=O)N(c2ccc(NC(=O)c3ccccn3)cc2Cl)C1=O` [Example 5, N-(3-chloro-4-(3,3-dimethyl-2,5-dioxopyrrolidin-1-yl)phenyl)picolinamide], on human mGluR4, the Emax came to 155% and the EC50 was found to be 1810 nM.

With `CC1(c2ccccc2)CC(=O)N(c2ccc(NC(=O)c3ccccn3)cc2Cl)C1=O` (centres unmarked) [Example 6, N-(3-chloro-4-(3-methyl-2,5-dioxo-3-phenylpyrrolidin-1-yl)phenyl)picolinamide], the Emax on human mGluR4 amounted to 245%.

On to `O=C(Nc1ccc(N2C(=O)[C@H]3CC[C@H](c4ccccc4)C[C@H]3C2=O)c(Cl)c1)c1ccccn1` [Example 7], for which, at human mGluR4, the Emax was determined as 209% and the EC50 came to 1950 nM.

Turning to `O=C(Nc1ccc(N2C(=O)[C@@H]3CCCC[C@H]3C2=O)c(Cl)c1)c1ccccn1` [Example 8, N-(3-chloro-4-((3aR,7aR)-1,3-dioxo-1H-isoindol-2(3H,3aH,4H,5H,6H,7H,7aH)-yl)phenyl)picolinamide], on human mGluR4, the Emax came to 189%. Besides, the EC50 on rat mGluR4 (EC50 for potentiation, rat mGluR4/GIRK, with EC20 concentration of agonist, read-out: rEC50) came out at 680 nM. Besides, the rGluMax on rat mGluR4 (rat mGluR4/GIRK) was found to be 123.3.

Consider `O=C(Nc1ccc(N2C(=O)[C@H]3CCCC[C@H]3C2=O)c(Cl)c1)c1ccccn1` [Example 9, N-(3-chloro-4-((3aR,7aS)-1,3-dioxo-1H-isoindol-2(3H,3aH,4H,5H,6H,7H,7aH)-yl)phenyl)picolinamide], for which the Emax at human mGluR4 stood at 116%.

Turning to `CC1CCC2C(=O)N(c3ccc(NC(=O)c4ccccn4)cc3Cl)C(=O)C2C1` (centres unmarked) [Example 10, N-(3-chloro-4-(5-methyl-1,3-dioxo-1H-isoindol-2(3H,3 aH,4H,5H,6H,7H,7aH)-yl)phenyl)picolinamide], at human mGluR4, the Emax came out at 215% and the EC50 came to 574 nM.

As for `O=C(Nc1ccc(N2C(=O)[C@H](c3ccccc3)[C@H](c3ccccc3)C2=O)c(Cl)c1)c1ccccn1` [Example 11, N-(3-chloro-4-((3R,4S)-2,5-dioxo-3,4-diphenylpyrrolidin-1-yl)phenyl)picolinamide], on human mGluR4, the Emax worked out at 64% and the EC50 was 1140 nM.

`O=C(Nc1ccc(N2C(=O)C3=C(C2=O)c2ccccc2CC3)c(Cl)c1)c1ccccn1` [Example 12, N-(3-chloro-4-(1,3-dioxo-4,5-dihydro-1H-benzo[e]isoindol-2(3H)-yl)phenyl)picolinamide]: on human mGluR4, the Emax is 276% and the EC50 turned out to be 254 nM.

Take `O=C(Nc1ccc(N2C(=O)Cc3ccccc3C2=O)c(Cl)c1)c1ccccn1` [Example 13, N-(3-chloro-4-(1,3-dioxo-3,4-dihydroisoquinolin-2(1H)-yl)phenyl)picolinamide]: at human mGluR4, the Emax was determined as 256% and the EC50 was found to be 118 nM.

Regarding `O=C(Nc1ccc(N2C(=O)CC3(CCCCC3)CC2=O)c(Cl)c1)c1ccccn1` [Example 14, N-(3-chloro-4-(2,4-dioxo-3-azaspiro[5.5]undecan-3-yl)phenyl)picolinamide], at human mGluR4, the Emax worked out at 193% and the EC50 is 163 nM.

Take `O=C(Nc1ccc(N2C(=O)CC3(CCCCC3)C2=O)c(Cl)c1)c1ccccn1` [Example 15, N-(3-chloro-4-(1,3-dioxo-2-azaspiro[4.5]decan-2-yl)phenyl)picolinamide]: on human mGluR4, the Emax came to 139%. For the same compound, the rGluMax at rat mGluR4 (rat mGluR4/GIRK) is recorded as 86.1.

In the case of `O=C(Nc1ccc(N2C(=O)CCC2=O)c(Cl)c1)c1ccccn1` [Example 16, N-(3-chloro-4-(2,5-dioxopyrrolidin-1-yl)phenyl)picolinamide], on human mGluR4, the Emax came out at 119% and the EC50 came to 5940 nM.

Regarding `O=C(Nc1ccc(N2C(=O)CCC2=O)c(Cl)c1)c1cccc(F)n1` [Example 17, N-(3-chloro-4-(2,5-dioxopyrrolidin-1-yl)phenyl)-6-fluoropicolinamide], at human mGluR4, the Emax was found to be 40% and the EC50 was 3130 nM.

As to `O=C(Nc1ccc(N2C(=O)CCC2=O)c(Cl)c1)c1cccc(Cl)n1` [Example 18, 6-Chloro-N-(3-chloro-4-(2,5-dioxopyrrolidin-1-yl)phenyl)picolinamide], on human mGluR4, the Emax was 37% and the EC50 is 2550 nM.

`O=C(Nc1ccc(N2C(=O)CCC2=O)c(Cl)c1)c1ccncn1` [Example 19, N-(3-chloro-4-(2,5-dioxopyrrolidin-1-yl)phenyl) pyrimidine-4-carboxamide]: on human mGluR4, the Emax was found to be 46% and the EC50 stood at 10000 nM.

With `O=C(Nc1ccc(N2C(=O)CCC2=O)c(Cl)c1)c1nccs1` [Example 20, N-(3-chloro-4-(2,5-dioxopyrrolidin-1-yl)phenyl)thiazole-2-carboxamide], at human mGluR4, the Emax stood at 69% and the EC50 came to 7730 nM.

For `O=C(Nc1ccc(N2C(=O)CCC2=O)c(Cl)c1)c1cscn1` [Example 21, N-(3-chloro-4-(2,5-dioxopyrrolidin-1-yl)phenyl)thiazole-4-carboxamide], at human mGluR4, the Emax was determined as 62% and the EC50 came to 8660 nM.
